According to paper PMC5951806, “Rapid labelling and covalent inhibition of intracellular native proteins using ligand-directed N-acyl-N-alkyl sulfonamide” (Nature Communications, 2018):

Key:
Assay in all cases: TMT LC-MSMS of 11-labelled proteins
Assay type in all cases: cell-based
[1] = molecular target: T1, Elongation factor 1-alpha 1 (EEF1A1) (Homo sapiens, UniProt P68104)
T1 sequence (P68104 1-462): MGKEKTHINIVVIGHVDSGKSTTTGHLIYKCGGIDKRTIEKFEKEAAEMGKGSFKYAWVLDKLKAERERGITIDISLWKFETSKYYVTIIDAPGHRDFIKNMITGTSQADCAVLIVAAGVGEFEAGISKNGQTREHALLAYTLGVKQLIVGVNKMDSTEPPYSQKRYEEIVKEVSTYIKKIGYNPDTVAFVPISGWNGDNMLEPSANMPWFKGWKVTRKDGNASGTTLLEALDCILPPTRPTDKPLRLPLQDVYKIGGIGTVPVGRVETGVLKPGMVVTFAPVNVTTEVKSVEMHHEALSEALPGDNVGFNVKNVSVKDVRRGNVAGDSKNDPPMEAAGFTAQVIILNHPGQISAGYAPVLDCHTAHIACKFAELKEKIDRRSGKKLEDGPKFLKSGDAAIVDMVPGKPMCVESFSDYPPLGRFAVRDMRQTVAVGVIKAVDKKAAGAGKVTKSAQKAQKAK

Endoplasmin (HSP90B1) = Endoplasmin (HSP90B1) (Homo sapiens, UniProt P14625)
peroxiredoxin-1 (PRDX1) = molecular target: T2, peroxiredoxin-1 (PRDX1) (Homo sapiens, UniProt Q06830)
T2 sequence (Q06830 1-199): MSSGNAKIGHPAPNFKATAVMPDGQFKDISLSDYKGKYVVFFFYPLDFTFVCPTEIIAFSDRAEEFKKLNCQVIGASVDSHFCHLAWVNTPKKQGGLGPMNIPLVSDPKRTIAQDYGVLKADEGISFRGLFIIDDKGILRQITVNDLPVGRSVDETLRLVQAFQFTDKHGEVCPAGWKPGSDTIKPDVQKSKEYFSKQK

[2] = sheet Exp1, SKBR3 cells, 11 0.5 µM 3 h vs DMSO
[3] = sheet Exp1, SKBR3 cells, 11 0.5 µM 3 h vs with PU-H71 10 µM
[4] = sheet Merged, SKBR3 cells, 11 0.5 µM 3 h vs DMSO
[5] = sheet Merged, SKBR3 cells, 11 0.5 µM 3 h vs with PU-H71 10 µM

Chain of Endoplasmin (HSP90B1) (P14625 22-803): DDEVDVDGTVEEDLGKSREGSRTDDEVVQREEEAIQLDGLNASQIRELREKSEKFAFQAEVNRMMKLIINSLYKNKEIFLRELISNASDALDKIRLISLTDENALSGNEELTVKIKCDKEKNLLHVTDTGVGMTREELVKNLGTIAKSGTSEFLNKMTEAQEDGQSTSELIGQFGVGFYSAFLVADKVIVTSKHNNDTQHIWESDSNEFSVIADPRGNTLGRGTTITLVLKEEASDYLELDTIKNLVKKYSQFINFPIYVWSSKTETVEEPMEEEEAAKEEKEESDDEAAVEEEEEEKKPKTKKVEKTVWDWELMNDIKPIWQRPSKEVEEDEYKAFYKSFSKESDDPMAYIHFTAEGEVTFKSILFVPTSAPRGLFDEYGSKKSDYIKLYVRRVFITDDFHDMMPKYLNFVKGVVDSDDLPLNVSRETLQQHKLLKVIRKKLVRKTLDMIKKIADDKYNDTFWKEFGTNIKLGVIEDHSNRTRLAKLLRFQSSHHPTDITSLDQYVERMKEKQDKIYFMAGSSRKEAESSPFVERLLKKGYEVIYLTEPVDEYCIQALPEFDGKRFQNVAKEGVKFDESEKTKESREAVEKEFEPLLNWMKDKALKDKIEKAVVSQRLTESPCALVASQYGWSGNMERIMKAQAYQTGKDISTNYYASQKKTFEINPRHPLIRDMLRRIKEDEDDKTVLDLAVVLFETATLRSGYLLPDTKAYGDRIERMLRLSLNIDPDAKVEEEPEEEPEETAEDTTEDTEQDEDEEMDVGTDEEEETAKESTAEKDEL

With `CC(=O)Oc1ccc2c(c1)Oc1cc(OC(C)=O)ccc1C21OC(=O)c2cc(C(=O)NCCOCCOCCNC(=O)CCCC(=O)N(CC#N)S(=O)(=O)c3ccc(C(=O)NCCCn4c(Sc5cc6c(cc5I)OCO6)nc5c(N)ncnc54)cc3)ccc21` [compound 11] the “Abundance Ratio: (11) / (11 with PU-H71)” value ([1]; Exp3, EEF1A1) was 0.806, the “Abundance Ratio: (11) / (DMSO)” value ([1]; Exp3, EEF1A1) was 4.916 and the “Abundances (Grouped): 11” value ([1]; Exp3, EEF1A1) was 720.2. For the same compound, the “Abundances (Grouped): 11 with PU-H71” value ([1]; Exp3, EEF1A1) was 894, the “Abundance Ratio: (11) / (DMSO)” value [1, 2] was 4.039 and the “Abundance Ratio: (11) / (11 with PU-H71)” value [1, 3] was 0.803. For the same compound, the “Abundance Ratio: (11) / (11 with PU-H71)” value ([1]; sheet Exp2, EEF1A1) was 0.83, the “Abundance Ratio: (11) / (DMSO)” value ([1]; sheet Exp2, EEF1A1) was 3.879 and the “Abundances (Grouped): 11” value ([1]; sheet Exp2, EEF1A1) was 725.4. The “Abundances (Grouped): 11 with PU-H71” value ([1]; sheet Exp2, EEF1A1) was 874.4, the “Abundance Ratio: (11) / (DMSO)” value [1, 4] was 3.879 and the “Abundance Ratio: (11) / (11 with PU-H71)” value [1, 5] was 0.811. The “Abundance Ratio: (11) / (11 with PU-H71)” value (Endoplasmin (HSP90B1); Exp3, HSP90B1) was 1.101, the “Abundance Ratio: (11) / (DMSO)” value (Endoplasmin (HSP90B1); Exp3, HSP90B1) was 2.844 and the “Abundances (Grouped): 11” value (Endoplasmin (HSP90B1); Exp3, HSP90B1) was 158.7. The “Abundances (Grouped): 11 with PU-H71” value (Endoplasmin (HSP90B1); Exp3, HSP90B1) was 144.1, the “Abundance Ratio: (11) / (DMSO)” value (Endoplasmin (HSP90B1); [2]) was 6.226 and the “Abundance Ratio: (11) / (11 with PU-H71)” value (Endoplasmin (HSP90B1); [3]) was 1.266. The “Abundance Ratio: (11) / (11 with PU-H71)” value (Endoplasmin (HSP90B1); sheet Exp2, HSP90B1) was 0.932, the “Abundance Ratio: (11) / (DMSO)” value (Endoplasmin (HSP90B1); sheet Exp2, HSP90B1) was 2.232 and the “Abundances (Grouped): 11” value (Endoplasmin (HSP90B1); sheet Exp2, HSP90B1) was 31.7. The “Abundances (Grouped): 11 with PU-H71” value (Endoplasmin (HSP90B1); sheet Exp2, HSP90B1) was 34, the “Abundance Ratio: (11) / (DMSO)” value (Endoplasmin (HSP90B1); [4]) was 6.226 and the “Abundance Ratio: (11) / (11 with PU-H71)” value (Endoplasmin (HSP90B1); [5]) was 1.266. The “Abundance Ratio: (11) / (11 with PU-H71)” value (peroxiredoxin-1 (PRDX1); Exp3, PRDX1) was 0.822, the “Abundance Ratio: (11) / (DMSO)” value (peroxiredoxin-1 (PRDX1); Exp3, PRDX1) was 2.683 and the “Abundances (Grouped): 11” value (peroxiredoxin-1 (PRDX1); Exp3, PRDX1) was 295.4. The “Abundances (Grouped): 11 with PU-H71” value (peroxiredoxin-1 (PRDX1); Exp3, PRDX1) was 359.3, the “Abundance Ratio: (11) / (DMSO)” value (peroxiredoxin-1 (PRDX1); [2]) was 2.358 and the “Abundance Ratio: (11) / (11 with PU-H71)” value (peroxiredoxin-1 (PRDX1); [3]) was 0.804. For the same compound, the “Abundance Ratio: (11) / (11 with PU-H71)” value (peroxiredoxin-1 (PRDX1); sheet Exp2, PRDX1) was 0.861, the “Abundance Ratio: (11) / (DMSO)” value (peroxiredoxin-1 (PRDX1); sheet Exp2, PRDX1) was 2.62 and the “Abundances (Grouped): 11” value (peroxiredoxin-1 (PRDX1); sheet Exp2, PRDX1) was 93.8. The “Abundances (Grouped): 11 with PU-H71” value (peroxiredoxin-1 (PRDX1); sheet Exp2, PRDX1) was 109, the “Abundance Ratio: (11) / (DMSO)” value (peroxiredoxin-1 (PRDX1); [4]) was 2.219 and the “Abundance Ratio: (11) / (11 with PU-H71)” value (peroxiredoxin-1 (PRDX1); [5]) was 0.847.
